{"source": "patent US6838436B1", "about": "“Inhibitors of proteasomal activity for stimulating bone growth” (Osteoscreen Inc., priority 1998, dated 2005)", "key": {"[1]": {"test_system": "hair follicles of skin explants", "assay": "Skin explants from mice during telogen (Example 16)", "assay_type": "cell-based", "conditions": "72 hours", "text": "In the untreated control explants, the follicles were few and small."}, "[2]": {"test_system": "calpain", "conditions": "cited from earlier work"}, "[3]": {"test_system": "calvaria of normal mice", "assay": "In vivo assay of effects on murine calvarial bone growth", "parameters": "species or system ICR Swiss white mice", "conditions": "for % Increase in Bone Area Compared with Control: p < 0.05; for % Increase in New Bone Width: p < 0.001", "protocol": "Male ICR Swiss white mice, aged 4-6 weeks and weighing 13-26 gm, are employed, using 4-5 mice per group. The calvarial bone growth assay is performed as described in PCT application WO95/24211, incorporated by reference. Briefly, the test compound or appropriate control vehicle is injected into the subcutaneous tissue over the right calvaria of normal mice. Typically, the control vehicle is the vehicle in which the compound was solubilized, and is PBS containing 5% DMSO or is PBS containing Tween (2 μl/10 ml). The animals are sacrificed on day 14 and bone growth measured by histomorphometry. Bone samples for quantitation are cleaned from adjacent tissues and fixed in 10% buffered formalin for 24-48 hours, decalcified in 14% EDTA for 1-3 weeks, processed through graded alcohols; and embedded in paraffin wax. Three to five μm sections of the calvaria are prepared, and representative sections are selected for histomorphometric assessment of the effects on bone formation and bone resorption. Sections are measured by using a camera lucida attachment to trace directly the microscopic image onto a digitizing plate. Bone changes are measured on sections cut 200 μm apart, over 4 adjacent 1×1 mm fields on both the injected and noninjected sides of the calvaria. New bone is identified by its characteristic woven structure, and osteoclasts and osteoblasts are identified by their distinctive morphology. Histomorphometry software (OsteoMeasure, Osteometrix, Inc., Atlanta) is used to process digitizer input to determine cell counts and measure areas or perimeters.\nTypical treatment regimens for testing utilize application of the compound to be tested over several days of repeated administration.\nPSI and MG-132 were assayed in vivo according to the procedure described previously (see “In vivo Assay of Effects of Compounds on Murine Calvarial Bone Growth”, supra). As a control, simvastatin provided a 1.5 fold increase in the number of osteoblasts.\nIn one experiment, vehicle control, bFGF and varying doses of PSI were tested in the in vivo calvarial bone growth assay. The results are reported as a measurement of total bone area, % increase in area over vehicle control, and % increase in new bone width as shown below."}, "[4]": {"test_system": "hair follicles", "assay": "Stimulation of hair growth after wax hair stripping, subcutaneous injection (Example 9)", "assay_type": "in vivo, Male Swiss ICR mice", "protocol": "Male Swiss ICR mice were first treated to remove hair from the scalp and dorsal regions as follows. Paraffin wax was liquefied by heating to 55° C. and the liquefied wax then applied by brush to the scalp and/or back (under anesthesia). The wax was allowed to solidify and then removed. The day following hair stripping, PSI (1 mg/kg/day) was injected subcutaneously three times a day for five days into the scalp and dorsal region. […] The mice were sacrificed on day 21 and histology was performed on the dermis of the scalp and of the dorsal region. […] Upon closer examination, it was observed that mice that had received only vehicle had quiescent hair follicles."}, "[5]": {"test_system": "hair follicles", "assay": "Effects on subcutaneous tissue of the scalp (Example 10)", "assay_type": "in vivo, ICR mice", "conditions": "1 mg/kg body weight/day injected daily for 5 days; examined 16 days later", "protocol": "Effects of PS1 on subcutaneous tissue of the scalp of 6-weeks old ICR mice from longitudinal and transverse sections were determined. PS1 dissolved in 50% propylene glycol, 10% DMSO, and 40% distilled water was injected daily for 5 days (1 mg/kg body weight/day) into the subcutaneous tissue, and the tissue examined histologically 16 days later."}, "[6]": {"test_system": "hair follicles", "assay": "Hair growth without depilation, shaved dorsal trunks (Example 15)", "assay_type": "in vivo, C57 BL/6 mice", "conditions": "for growth of new hair at the site of drug application: sixteenth day", "protocol": "To confirm that the responses described above occurred in the absence of depilation and in other strains of mice, PS1 (0.5%) was applied topically once daily for 5 days to eight week old male C57 BL/6 mice in which the dorsal trunks were shaved but not depilated. For this experiment, the hair of 18 C57 BL/6 mice was carefully clipped the hair from the dorsal trunks. Three groups were tested. One group was treated with PS1 (0.5%) applied topically to the shaved area daily. In the second group, PS1 (1 mg/kg body weight/day) was injected locally into the subcutaneous tissue of the shaved area. These two groups were compared with the third group, which was untreated other than the hair on the dorsal trunk was similarly clipped. Blonde hair dye (extra strength bleach powder and 12% hydrogen peroxide in a 1 to 1 w/v ratio) was applied to the dorsal trunks of all mice on the seventh day in order to make it easier to detect new hair growth represented by appearance in the blonded areas of the natural black hair of the mice associated with induction of melanogenesis."}, "[7]": {"test_system": "proteasomal activity", "conditions": "cited from earlier work"}}, "note": "Where a SMILES comes first, the peptide text is derived from it. The star is where a group is joined. Cbz = O=C(OCc1ccccc1)*; OtBu = CC(C)(C)O*"}
{"molecule": "CC[C@H](C)[C@H](NC(=O)[C@H]([C@@H](C)CC)N(C)C(C)=O)C(=O)N[C@H](C(=O)N[C@@H](CC(C)C)C(=O)[C@@]1(C)CO1)[C@@H](C)O", "note": "[Epoxomicin]", "values": [{"measurement": "hair follicle diameter and follicle elongation", "setting": "[1]; 25 nM", "value": "obvious increase in hair follicle diameter, and follicle elongation"}, {"measurement": "concentration up to which no inhibition appears", "setting": "[2]", "value": "> 50", "unit": "µM"}]}
{"molecule": "CC[C@H](C)[C@H](NC(=O)OCc1ccccc1)C(=O)N[C@@H](CCC(=O)OC(C)(C)C)C(=O)N[C@@H](C)C(=O)N[C@H](C=O)CC(C)C", "note": "[PSI, N-carbobenzoyl-Ile-Glu-(OtBu)-Ala-Leu-CHO] (Cbz-IE(OtBu)AL-aldehyde)", "values": [{"measurement": "histological examination of bone growth", "setting": "[3]; 5 mg/kg/day and 1 mg/kg/day of PSI", "value": "confirmation of bone growth"}, {"measurement": "Total Bone Area", "setting": "[3]; PSI 0.1 mg/kg/day", "value": "0.74 ± 0.02", "unit": "mm²"}, {"measurement": "% Increase in Bone Area Compared with Control", "setting": "[3]; PSI 0.1 mg/kg/day", "value": "21.7 ± 3.5", "unit": "%"}, {"measurement": "Total Bone Area", "setting": "[3]; PSI 1 mg/kg/day", "value": "0.83 ± 0.02", "unit": "mm²"}, {"measurement": "% Increase in New Bone Width", "setting": "[3]; PSI 1 mg/kg/day", "value": "19.9 ± 2.0", "unit": "%"}, {"measurement": "% Increase in Bone Area Compared with Control", "setting": "[3]; PSI 1 mg/kg/day", "value": "35.4 ± 3.4", "unit": "%"}, {"measurement": "Total Bone Area", "setting": "[3]; PSI 5 mg/kg/day", "value": "0.79 ± 0.03", "unit": "mm²"}, {"measurement": "% Increase in New Bone Width", "setting": "[3]; PSI 5 mg/kg/day", "value": "19.9 ± 4.4", "unit": "%"}, {"measurement": "% Increase in Bone Area Compared with Control", "setting": "[3]; PSI 5 mg/kg/day", "value": "32.1 ± 5.6", "unit": "%"}, {"measurement": "number of hair follicles versus control mice", "setting": "[4]; 1 mg/kg/day subcutaneously three times a day for five days, day 7 dermal punch biopsy", "value": "large increase in the number of hair follicles"}, {"measurement": "hair growth rate", "setting": "[4]; 1 mg/kg/day subcutaneously, by day 18", "value": "hair growth rate greater than that of the mice in the control group"}, {"measurement": "mature hair follicles in the lower region of the dermis", "setting": "[4]; 1 mg/kg/day subcutaneously, day 21 histology", "value": "mature hair follicles in numbers much greater than in controls"}, {"measurement": "numbers of hair follicles", "setting": "[5]", "value": "numbers of hair follicles increased"}, {"measurement": "size of the follicle diameter and the root sheath diameter", "setting": "[5]", "value": "obvious increase in size of the follicle diameter and the root sheath diameter"}, {"measurement": "growth of new hair at the site of drug application", "setting": "[6]; 1 mg/kg body weight/day injected locally into the subcutaneous tissue", "value": "more rapid growth of new hair"}, {"measurement": "growth of new hair at the site of drug application", "setting": "[6]; 0.5% applied topically once daily for 5 days", "value": "more rapid growth of new hair"}, {"measurement": "diameter of the hair and of the inner and outer root sheath", "setting": "[6]; transverse sections of skin, only in the applied areas", "value": "increased both the diameter of the hair and the diameter of the inner and outer root sheath"}, {"measurement": "hair follicle diameter and follicle elongation", "setting": "[1]; 50 nM", "value": "obvious increase in hair follicle diameter, and follicle elongation"}]}
{"molecule": "simvastatin", "values": [{"measurement": "increase in the number of osteoblasts", "setting": "[3]; mouse, in vivo", "value": 1.5, "unit": "fold"}, {"measurement": "effects on proteasomal activity", "setting": "[7]", "value": "no effects on proteasomal activity"}]}
